In US11629135B2 (JUBILANT PRODEL LLC, priority 2017, dated 2023):
pIC50: −log10 of the molar value.

Tests used:
CYP2C19 = target: T1, CYP2C19 (Homo sapiens, UniProt P33261); assay: CYP inhibition in human liver microsomes (CYP2C19); assay type: in vitro ADME; conditions: hydroxylation of omeprazole (CYP2C19 per method), read-out: predicted IC50, hydroxylation of omeprazole
T1 construct: assessed in human liver microsomes (procured from GIBCO Invitrogen); tissue GIBCO Invitrogen; host or cells: human liver microsomes
T1 sequence (P33261 whole entry): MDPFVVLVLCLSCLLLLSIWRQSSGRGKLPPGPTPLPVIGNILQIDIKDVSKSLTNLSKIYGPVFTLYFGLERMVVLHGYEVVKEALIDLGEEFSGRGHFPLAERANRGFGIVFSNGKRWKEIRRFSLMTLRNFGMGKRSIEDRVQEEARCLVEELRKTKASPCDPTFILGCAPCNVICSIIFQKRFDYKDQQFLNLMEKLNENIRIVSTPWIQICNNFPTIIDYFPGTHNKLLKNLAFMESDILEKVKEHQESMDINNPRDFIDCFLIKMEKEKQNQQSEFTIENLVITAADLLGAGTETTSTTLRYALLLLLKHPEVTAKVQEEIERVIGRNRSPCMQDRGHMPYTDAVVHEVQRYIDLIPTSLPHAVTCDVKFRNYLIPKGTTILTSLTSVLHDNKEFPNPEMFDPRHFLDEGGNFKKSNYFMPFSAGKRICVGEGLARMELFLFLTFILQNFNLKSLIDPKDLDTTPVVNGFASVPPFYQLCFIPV
Method: (§1) CYP inhibition potential of compound was assessed in human liver microsomes (procured from GIBCO Invitrogen) against CYP3A4, 2D6, 2C9, 2C19 and 1A2 in the following sequential steps. Standard reaction mixture (final volume 300 μL) contained […] potassium phosphate buffer (pH 7.4), protein (0.1, 0.25, 0.5, 0.5 and 0.5 mg/mL concentration for CYP3A4, 2D6, 2C9 2C19 and 1A2 respectively) and compound (at eight different concentration levels ranging from […], added as 0.9 μL DMSO solution with a final DMSO concentration of […]). The mixtures were pre-incubated at 37±1° C. for 5 min. The reaction (in duplicate) was initiated by addition of 30 μL of NADPH (10 mM). Reaction was terminated at 10 min by adding 300 μL of acetonitrile. The activity of liver microsomes was confirmed with positive controls i.e., monitoring the hydroxylation of midazolam for CYP 3A4, hydroxylation of bufuralol for CYP 2D6, hydroxylation of diclofenac for CYP 2C9, hydroxylation of omeprazole for CYP2C19 and O-Deethylation for CYP 1A2. The reaction mixtures (obtained from the above studies) were extracted, processed and analyzed by LC-MS [Shimadzu SIL LC series (Kyoto, Japan) was coupled to an API-4000 Mass Spectrometer (MDS Sciex, Toronto, Canada)].

CYP 2C9 = target: T2, CYP 2C9 (Homo sapiens, UniProt P11712); assay: CYP inhibition in human liver microsomes (CYP2C9); assay type: in vitro ADME; conditions: hydroxylation of diclofenac, read-out: predicted IC50, CYP 2C9
T2 construct: assessed in human liver microsomes (procured from GIBCO Invitrogen); tissue GIBCO Invitrogen; host or cells: human liver microsomes
T2 sequence (P11712 whole entry): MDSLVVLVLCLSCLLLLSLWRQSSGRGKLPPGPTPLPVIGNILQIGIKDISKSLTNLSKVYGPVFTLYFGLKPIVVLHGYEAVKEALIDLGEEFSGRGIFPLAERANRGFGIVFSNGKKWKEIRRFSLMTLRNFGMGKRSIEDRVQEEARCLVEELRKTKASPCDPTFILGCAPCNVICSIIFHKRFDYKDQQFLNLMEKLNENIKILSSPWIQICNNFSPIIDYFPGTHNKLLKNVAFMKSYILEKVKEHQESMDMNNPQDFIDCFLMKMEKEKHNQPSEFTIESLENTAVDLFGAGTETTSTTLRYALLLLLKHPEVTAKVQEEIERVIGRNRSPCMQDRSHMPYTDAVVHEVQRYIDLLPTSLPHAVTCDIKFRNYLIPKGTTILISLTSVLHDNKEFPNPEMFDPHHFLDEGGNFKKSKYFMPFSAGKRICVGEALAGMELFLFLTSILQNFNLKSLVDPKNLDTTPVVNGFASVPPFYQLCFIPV
Method: as §1

pIC50 (CYP2C19): < 5.00
pIC50 (CYP 2C9): < 5.00
SMILES: COc1nc(OCc2cccc(-c3ccccc3)c2C)nc(OC)c1CN1CCCC[C@H]1C(=O)O [Compound 45, (S)-1-((4,6-dimethoxy-2-((2-methyl-[1,1′-biphenyl]-3-yl)methoxy)pyrimidin-5-yl)methyl)piperidine-2-carboxylic acid]
